Measured values reported in ChEMBL document CHEMBL6127009, “Discovery of L15 as a novel Vif PROTAC degrader with antiviral activity against HIV-1” (Bioorg Med Chem Lett, 2024).
pEC50: −log10 of the molar value. Activity calls are given as the source filed them. The rule behind the calls is not given here.

Key:
[1] = test system: Human immunodeficiency virus 1; assay: Antiviral activity against HIV1 at 50 uM measured after 8 hrs; format: functional, organism-based
[2] = test system: Human immunodeficiency virus 1; assay: Antiviral activity against HIV-1 A17 infected in C8166 cells; format: functional, organism-based; conditions: Human immunodeficiency virus 1, A17, C8166
[3] = molecular target: T1, Protein cereblon/Virion infectivity factor (Human immunodeficiency virus type 1 group M subtype B (isolate NY5)(HIV-1)) (UniProt Q96SW2+P12504); assay: PROTAC activity at CRBN (unknown origin)/Vif in HIV-1 TREX-hvif-15 cells assessed as reduction in Vif protein level at 50 uM by Western blotting analysis; format: cell-based; conditions: TREX-hvif-15 cell
T1 sequence (P12504 whole entry, looked up): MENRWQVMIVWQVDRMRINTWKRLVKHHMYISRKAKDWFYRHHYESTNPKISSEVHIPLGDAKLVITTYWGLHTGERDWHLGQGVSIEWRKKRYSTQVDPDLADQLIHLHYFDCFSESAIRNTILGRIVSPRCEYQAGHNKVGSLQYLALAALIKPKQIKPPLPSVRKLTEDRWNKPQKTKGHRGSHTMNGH
T1 sequence (Q96SW2 whole entry, looked up): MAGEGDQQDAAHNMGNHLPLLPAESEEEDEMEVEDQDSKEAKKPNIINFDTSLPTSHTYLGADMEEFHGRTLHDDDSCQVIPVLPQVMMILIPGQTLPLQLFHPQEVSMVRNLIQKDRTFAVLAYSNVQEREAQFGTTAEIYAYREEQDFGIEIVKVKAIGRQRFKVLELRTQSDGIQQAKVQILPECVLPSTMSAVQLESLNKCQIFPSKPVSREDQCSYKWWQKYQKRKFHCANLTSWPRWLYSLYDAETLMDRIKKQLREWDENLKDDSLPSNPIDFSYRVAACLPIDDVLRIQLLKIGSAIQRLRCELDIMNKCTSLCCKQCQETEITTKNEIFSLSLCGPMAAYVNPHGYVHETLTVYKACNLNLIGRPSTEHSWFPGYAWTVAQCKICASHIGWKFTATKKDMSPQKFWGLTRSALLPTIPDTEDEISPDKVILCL

[4] = molecular target: T1, Protein cereblon/Virion infectivity factor (Human immunodeficiency virus type 1 group M subtype B (isolate NY5)(HIV-1)); assay: PROTAC activity at CRBN (unknown origin)/Vif in HIV-1 TREX-hvif-15 cells assessed as reduction in Vif protein level at 50 uM pretreated with MG132 followed by compound addition and measured after 24 hrs by Western blotting analysis; format: cell-based; conditions: TREX-hvif-15 cell
[5] = test system: Human immunodeficiency virus 1; assay: Antiviral activity against HIV-1 IIIB infected in TZM-bl cells; format: functional, organism-based; conditions: Human immunodeficiency virus 1, IIIB
[6] = test system: Human immunodeficiency virus 1; assay: Antiviral activity against HIV-1 9498 infected in C8166 cells; format: functional, organism-based; conditions: Human immunodeficiency virus 1, 9498, C8166
[7] = molecular target: T1, Protein cereblon/Virion infectivity factor (Human immunodeficiency virus type 1 group M subtype B (isolate NY5)(HIV-1)); assay: PROTAC activity at CRBN (unknown origin)/Vif in HIV-1 TREX-hvif-15 cells assessed as reduction in Vif protein level at 100 uM incubated for 24 hrs by Western blotting analysis; format: cell-based; design: scale not given: the % may be the effect or the level left; conditions: TREX-hvif-15 cell
[8] = test system: Human immunodeficiency virus 1; assay: Antiviral activity against HIV-1 4755-5 infected in C8166 cells; format: functional, organism-based; conditions: Human immunodeficiency virus 1, 4755-5, C8166
[9] = test system: Human immunodeficiency virus 1; assay: Antiviral activity against HIV-1 KIZ002 infected in PHA-P stimulated PBMCs; format: functional, organism-based; conditions: Human immunodeficiency virus 1, KIZ002, PBMC
[10] = test system: Human immunodeficiency virus 1; assay: Antiviral activity against HIV-1 IIIB infected in C8166 cells; format: functional, organism-based; conditions: Human immunodeficiency virus 1, IIIB
[11] = test system: Human immunodeficiency virus 1; assay: Antiviral activity against HIV-1 G140S/Q148H infected in C8166 cells; format: functional, organism-based; conditions: Human immunodeficiency virus 1, G140S/Q148H
[12] = molecular target: T1, Protein cereblon/Virion infectivity factor (Human immunodeficiency virus type 1 group M subtype B (isolate NY5)(HIV-1)); assay: PROTAC activity at CRBN (unknown origin)/Vif in HIV-1 TREX-hvif-15 cells assessed as reduction in Vif protein level incubated for 24 hrs by Western blotting analysis; format: cell-based; conditions: TREX-hvif-15 cell, dose 3.125-50 µM
[13] = test system: Human immunodeficiency virus 1; assay: Antiviral activity against HIV-1 WAN infected in PHA-P stimulated PBMCs; format: functional, organism-based; conditions: Human immunodeficiency virus 1, WAN, PBMC
[14] = test system: Human immunodeficiency virus 1; assay: Antiviral activity against HIV-1 2802 infected in C8166 cells; format: functional, organism-based; conditions: Human immunodeficiency virus 1, 2802, C8166
[15] = Cytotoxicity against human TZM-bl cells; format: toxicity, cell-based
[16] = Therapeutic index, ratio of CC50 for human TZM-bl cells to EC50 for HIV IIIB infected in TZM-bl cells; format: toxicity, cell-based; conditions: read-out: Ratio CC50/EC50
[17] = Cytotoxicity against human PBMCs; format: toxicity, cell-based, PBMC

COc1ccc(OCC(=O)NCCOCCOCCNc2cccc3c2C(=O)N(C2CCC(=O)NC2=O)C3=O)cc1NC(=O)c1c(N)cccc1Sc1ccc([N+](=O)[O-])cc1 (configuration not stated)
Activity [1]: Active
pEC50 [2]: < 4.00
Activity [3]: Active
Activity [4]: inactive
pEC50 [5]: 4.48
pEC50 [6]: 5.02
Activity [7]: 100%
pEC50 [8]: 4.87
pEC50 [9]: 4.98
pEC50 [10]: 4.98
pEC50 [11]: 5.07
Activity [12]: Dose-Dependent Effect
pEC50 [13]: 5.06
pEC50 [14]: 5.14
CC50 [15]: > 200 µM
selectivity ratio [16]: > 6
CC50 [17]: > 200 µM
